The values below come from publication PMC4842970, “Bioactivity Focus of α-Cyano-4-hydroxycinnamic acid (CHCA) Leads to Effective Multifunctional Aldose Reductase Inhibitors” (Scientific Reports, 2016).

SMILES strings stand for the structures.

Series [1] concerns oxidative stress (ROS, MDA, ORAC). The series can be described thus: ROS generation, MDA and ORAC level in chick embryos. Type of series: in vivo. As to conditions: glucose-treated chick embryos; for ORAC level (anti-oxidative capacity) of embryo: EDD 5. From the text:
It has been reported that hyperglycemia increased the production of ROS. Blocking the generation of ROS could at least partially prevent the possible damage of hyperglycemia. No doubt, oxidative stress will be induced in glucose treated embryos. This conclusion was confirmed by the determination of ROS and malondialdehyde (MDA) levels, and the anti-oxidation ability in chick embryos on EDD 5. […] However, treatment of 5f decreased both levels of ROS and MDA in a dose-dependent manner.
In addition, the ORAC level is indicative of the anti-oxidative capacity.
ROS generation ratios in the eyes of EDD 5 chick embryos were detected with 5 μmol 2′,7′-dichlorofluorescein-diacetate (DCFH-DA, Sigma-Aldrich). The peroxide content was determined by measuring thiobarbituric-acid-reactive substances (TBARS) with a commercial MDA kit (Nanjing Jiancheng Institute of Biotechnology, Nanjing, China). The procedures for the ORAC assay were modified from the previously described method. The automated ORAC assay was carried out on a decay of the fluorescein signal and determined with an excitation/emission filter pair of 485/527 nm in a GENios Lueifcrase microplate reader (TECAN) at 37 °C. Final results were calculated on the basis of the difference in the area under the fluorescein decay curve between the blank and each sample.

The next series relates to ALR2. The series can be described thus: AR (ALR2) activity in glucose-treated embryos (chicken AR ELISA kit). To be noted: glucose-treated chick embryos, EDD 5, edaravone group (0.1 nM). It is filed as in vivo. As to the method: As expected, treatment of 5f decreased ALR2 activity in a dose-dependent manner. […] However, EDA, which is a clinical radical scavenger, was shown no effect on the inhibition of ALR2.
Embryos on EDD 5 were homogenized with chicken saline and centrifuged (4 °C, 10000 rpm, 10 min). The supernatant was used for measuring AR activity in the sample. A chicken AR ELISA kit (Jianglai Biotechnology, China) were used for detection. The concentration of AR in the samples was then determined by comparing the OD of the samples to the standard curve. The sorbitol contents of the chick embryo were determined by a Sorbitol Colorimetric Assay Kit (BioVision, USA). In the assay, sorbitol is oxidized to fructose with the proportional development of intense color with an absorbance maximum at 560 nm.
For orientation: In an ELISA, binding on a coated surface is turned into a signal by an enzyme label.

For the next series, the system named is chick embryo. The series can be described thus: Chick embryo model of hyperglycemia: mortality, NTD rate, body weight. Type of series: in vivo. To be noted: glucose 0.4 mmol/egg. As to the method: In order to evaluate further the potential of 5f as an agent to treat diseases caused by high glucose inside the system, a chick embryo model of treatment with high glucose was set up.
Fertilized leghorn eggs were purchased from the Avian Farm of the South China Agriculture University (Guangzhou, China). Before the injection of glucose (Sigma–Aldrich, MO, USA), the eggs were incubated in a humidified incubator (Grumbach, Germany) at 37 °C with 60% humidity until the embryos reached the desired stage. […] Glucose was dissolved in 200 μL chicken saline and injected on EDD 1. Mortality, abnormality and body weight measurements were made on EDD 5. Embryos were removed from their eggs and weighed. The percent mortality was measured by counting the number of dead versus all embryos. The rate of NTD of the embryos was assessed by the number of NTD versus survival embryos.

The next series concerns HEK293 cells. Description: Cytotoxicity, MTT growth inhibition. It is filed as cell-based, human. As to conditions: 500 μM. As to the method: In another aspect, the toxicity was evaluated by the growth inhibition of 5f against human embryonic kidney 293 (HEK293) cells. It was shown that 5f was nontoxic to HEK293 cells even at high concentration of 500 μM (Supplementary B of Fig. S2).
HEK293 cells were purchased from Centre of Cells Resource, Shanghai Institute of Life Science, Chinese Academy of Sciences, P. R. China. HEK293 cells in the exponential phase were plated on a 96-well cell culture plate with 5 × 10^3 cells in each well supplemented with 100 U/ml of penicillin and 100 μg/ml of streptomycin, which were cultured in a humidified atmosphere of 95% and 5% CO2 at 37 °C for 24 h. The cells were adherent. […] 6 wells were set for each group. The wells without addition of the drug were set as controls. The cells in each of the wells were cultured for another 24 h. Then 15 μl of MTT (5 mg/mL) was added to each well. The plates were then incubated at 37 °C for 4 hours, then the supernatants were discarded. 150 μL of DMSO solutions were added to each of the wells and the solutions were mixed thoroughly. Then the plates were incubated at 37 °C for another 10 minutes. Each sample was mixed again and the resulting formazan was measured by its absorbance at 570 nm using a BIO-RAD680 plate reader (Thermo, USA). The experiments were repeated at least 3 times and compared with the control experiment. […]

The target of a further series is T1, ALR1 (Gallus gallus, UniProt Q5ZK84).
T1 construct: Embryos on EDD 5 were homogenized with chicken saline and centrifuged; from tissue; host or cells: EDD 5 chick (leghorn) embryo homogenate supernatant
T1 sequence (Q5ZK84 1-327): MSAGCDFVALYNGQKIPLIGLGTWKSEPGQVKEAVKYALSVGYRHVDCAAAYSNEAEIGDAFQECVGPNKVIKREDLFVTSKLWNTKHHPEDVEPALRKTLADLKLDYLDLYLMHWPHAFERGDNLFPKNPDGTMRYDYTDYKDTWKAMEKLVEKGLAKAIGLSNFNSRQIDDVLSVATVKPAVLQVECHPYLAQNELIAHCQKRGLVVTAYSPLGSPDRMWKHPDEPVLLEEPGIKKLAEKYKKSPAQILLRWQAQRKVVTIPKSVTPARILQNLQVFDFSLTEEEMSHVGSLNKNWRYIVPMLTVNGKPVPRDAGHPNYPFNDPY
Description: ALR1 activity in glucose-treated embryos (chicken ALR1 ELISA kit). Type of series: in vivo. As to conditions: glucose-treated chick embryos, EDD 5, compared with the model group. As to the method: Embryos on EDD 5 were homogenized with chicken saline and centrifuged (4 °C, 10000 rpm, 10 min). The supernatant was used for measuring ALR1 activity in the sample. A chicken ALR1 ELISA kit (Jianglai Biotechnology, China) were used for detection. The concentration of ALR1 in the samples was then determined by comparing the OD of the samples to the standard curve.

Another series deals with AR. Further details: method as in PMID 22316239. As to conditions: read-out: IC50 (AR inhibition); cited from earlier work.

`CC1=NN(c2ccccc2)C(=O)C1` [Edaravone, reference compound]: the “ORAC level (anti-oxidative capacity) of embryo” value in series [1] is “recovered”. Moreover, in the series with ALR2, the “ALR2 activity in embryo” value was “no effect”. Moreover, in the series with chick embryo (EDD 5, dose 0.1 nM), the Body weight turned out to be 310.8 ± 11.6 mg, the “Death (/n)” value is 20.0% and the “NTD (/survival)” value worked out at 18.8%.
Regarding `CC(/C=C1\SC(=S)N(CC(=O)O)C1=O)=C\c1ccccc1` [Epalrestat, epalrestat, reference compound], in series [1], the “ORAC level (anti-oxidative capacity) of embryo” value is “no effect”. Also, in series [1] (EDD 5, dose 1 μM), the “MDA level in embryo” value is reported as “no effect” and the “ROS level in embryo” value is “no effect”. Besides, the “inhibition rate (growth inhibition)” value in the series with HEK293 cells stood at 36.4%. In the series on chick embryo (EDD 5, dose 1 μM), the Body weight worked out at 300.1 ± 3.6 mg, the “Death (/n)” value is on record as 25.0% and the “NTD (/survival)” value was determined as 26.7%. Besides, the “ALR1 level in embryo” value on ALR1 is listed as “no obvious change”.
On to `O=C(O)/C=C/c1ccc(O)cc1` [p-coumaric acid], for which, in the series on AR, the IC50 – broadly, the concentration at which inhibition is half-maximal – is 140 nM.
